SMILES strings stand for the structures. ≈ marks a conversion by molar mass, not a printed value.

Common to all, as to type: functional
In one test the test system is P388. As to the kind of experiment: Growth inhibition of mouse P388 cells.
The next test relates to BXPC-3. Put plainly: Growth inhibition of human BXPC3 cells.
The next test relates to MCF7. Put plainly: Growth inhibition of human MCF7 cells.
A further test concerns SF-268. Put plainly: Growth inhibition of human SF268 cells.
A further test relates to NCI-H460. Put plainly: Growth inhibition of human NCI-H460 cells.
The next test concerns KM-20L2. Put plainly: Growth inhibition of human KM20L2 cells.
The test system of a further test is DU-145. Put plainly: Growth inhibition of human DU145 cells.

As usually defined, the GI50 is the concentration that inhibits growth by half. The low end stands for greater sensitivity of the cells, the high end for lower sensitivity of the cells. Turning to `COc1c(C)c(O)c2c(c1OC)C=Cc1c(O)cccc1O2` [BAUHINIASTATIN 2], the GI50 in the test on P388 was 23.2 µg/mL (≈ 77.3 µM); in the test with BXPC-3, 3.8 µg/mL (≈ 12.7 µM); in the test with MCF7 it was 3.1 µg/mL (≈ 10.3 µM); in the test with SF-268 it was 3.2 µg/mL (≈ 10.7 µM); in the test with NCI-H460, 3.5 µg/mL (≈ 11.7 µM); in the test on KM-20L2 it was above 10 µg/mL. The same molecule gave a GI50 in the test with DU-145 of 3.8 µg/mL (≈ 12.7 µM).
With `COc1cc2c(c(O)c1C)Oc1c(O)ccc(OC)c1C=C2` [BAUHINIASTATIN 3], the GI50 in the test on P388 was 15.7 µg/mL (≈ 52.3 µM); in the test with BXPC-3, 6.6 µg/mL (≈ 22 µM); in the test with MCF7 it was 3.2 µg/mL (≈ 10.7 µM); in the test on SF-268 it was 5.8 µg/mL (≈ 19.3 µM); in the test on NCI-H460 it was 6.1 µg/mL (≈ 20.3 µM); with KM-20L2, above 10 µg/mL. This molecule also displayed a GI50 with DU-145 of 5.8 µg/mL (≈ 19.3 µM).
On to `O=c1[nH]cc(F)c(=O)[nH]1` [FLUOROURACIL], for which the GI50 in the test with P388 was 0.073 µg/mL (≈ 0.561 µM).
Consider `COc1c(C)c(=O)c2oc3cccc(O)c3ccc=2c1=O` [BAUHINIASTATIN 1], for which the GI50 with P388 is 0.65 µg/mL (≈ 2.29 µM); in the test on BXPC-3 it was 7 µg/mL (≈ 24.6 µM); in the test with MCF7, 4.1 µg/mL (≈ 14.4 µM); in the test on SF-268 it was 2.4 µg/mL (≈ 8.44 µM); in the test on NCI-H460 it was 6.6 µg/mL (≈ 23.2 µM); in the test with KM-20L2, above 10 µg/mL. For the same molecule, in the test on DU-145, the GI50 was above 10 µg/mL.
In the case of `COc1cc2c(c(O)c1C)Oc1cccc(O)c1C=C2` [PACHARIN], the GI50 in the test with P388 was 15.5 µg/mL (≈ 57.3 µM); in the test on BXPC-3 it was 4.3 µg/mL (≈ 15.9 µM); in the test with MCF7 it was 2.3 µg/mL (≈ 8.51 µM); in the test with SF-268, 3.1 µg/mL (≈ 11.5 µM); in the test on NCI-H460, 4.2 µg/mL (≈ 15.5 µM); in the test with KM-20L2, above 10 µg/mL. Moreover, in the test on DU-145, it took 3.3 µg/mL (≈ 12.2 µM) to inhibit growth by half (GI50).
As to `COc1c(C)c(O)cc2c1Oc1cccc(O)c1C=C2` [BAUHINIASTATIN 4], the GI50 with P388 worked out at 61.5 µg/mL (≈ 228 µM).
